Experimental data: patent US20260234129A1, “NOVEL IMIDAZOLE DERIVATIVE AND USE THEREOF” (PELEMED CO., LTD., priority 2023, published 2026)

Experiments:
Assay in all cases: scanMax kinase panel (Eurofins)
Type in all cases: binding
[1] = target: T1, ABL1(H396P)-phosphorylated (Homo sapiens, UniProt P00519, H396P); conditions: read-out: % control
T1 construct: purchased Eurofins
Experimental: (§1) The following assay method was performed to evaluate the inhibitory activities of a compound according to the present invention with respect to various enzymes. […] The compound was applied to the enzyme at a concentration of 1 μM, dissolved in DMSO, and the % control was determined according to Equation 1 below.
(§2) Here, the positive control refers to a compound corresponding to 0% control, and the negative control refers to a compound corresponding to 100% control.

[2] = target: T2, ABL1(Q252H)-phosphorylated (Homo sapiens, UniProt P00519, Q252H); conditions: read-out: % control
T2 construct: purchased Eurofins
Experimental: as §1, §2

AURKB = target: T3, AURKB (Homo sapiens, UniProt Q96GD4); conditions: read-out: % control
T3 construct: purchased Eurofins
Experimental: as §1, §2

DYRK1B = target: T4, DYRK1B (Homo sapiens, UniProt Q9Y463); conditions: read-out: % control
T4 construct: purchased Eurofins scanMax® kinase panel
Experimental: as §1, §2

ERK1 = target: T5, ERK1 (Homo sapiens, UniProt P27361); conditions: ERK1, 1 μM; read-out: % control
T5 construct: purchased Eurofins scanMax® kinase panel
Experimental: as §1, §2

ERK3 = target: T6, ERK3 (Homo sapiens, UniProt Q16659); conditions: ERK3, 1 μM; read-out: % control
T6 construct: purchased Eurofins scanMax® kinase panel
Experimental: as §1, §2

HIPK1 = target: T7, HIPK1 (Homo sapiens, UniProt Q86Z02); conditions: HIPK1, 1 μM; read-out: % control
T7 construct: purchased Eurofins scanMax® kinase panel
Experimental: as §1, §2

HIPK4 = target: T8, HIPK4 (Homo sapiens, UniProt Q8NE63); conditions: HIPK4, 1 μM; read-out: % control
T8 construct: purchased Eurofins
Experimental: as §1, §2

KIT(A829P) = target: T9, KIT(A829P) (Homo sapiens, UniProt P10721, A829P); conditions: read-out: % control
T9 construct: purchased Eurofins
Experimental: as §1, §2

KIT(V559D) = target: T10, KIT(V559D) (Homo sapiens, UniProt P10721, V559D); conditions: read-out: % control
T10 construct: purchased Eurofins
Experimental: as §1, §2

KIT(V559D, V654A) = target: T11, KIT(V559D, V654A) (Homo sapiens, UniProt P10721, V559D/V654A); conditions: read-out: % control
T11 construct: purchased Eurofins
Experimental: as §1, §2

MAP3K2 = target: T12, MAP3K2 (Homo sapiens, UniProt Q9Y2U5); conditions: MAP3K2, 1 μM; read-out: % control
T12 construct: purchased Eurofins
Experimental: as §1, §2

MEK2 = target: T13, MEK2 (Homo sapiens, UniProt P36507); conditions: MEK2, 1 μM; read-out: % control
T13 construct: purchased Eurofins
Experimental: as §1, §2

PAK4 = target: T14, PAK4 (Homo sapiens, UniProt O96013); conditions: PAK4, 1 μM; read-out: % control
T14 construct: purchased Eurofins scanMax kinase panel
Experimental: as §1, §2

PAKI = target: T15, PAKI (Homo sapiens, UniProt Q13153); conditions: read-out: % control
T15 construct: purchased Eurofins scanMax kinase panel
Experimental: as §1, §2

PIM3 = target: T16, PIM3 (Homo sapiens, UniProt Q86V86); conditions: PIM3, 1 μM; read-out: % control
T16 construct: purchased Eurofins scanMax kinase panel
Experimental: as §1, §2

TRKB = target: T17, TRKB (Homo sapiens, UniProt Q16620); conditions: read-out: % control
T17 construct: purchased Eurofins scanMax kinase panel
Experimental: as §1, §2

T5 sequence (P27361 whole entry): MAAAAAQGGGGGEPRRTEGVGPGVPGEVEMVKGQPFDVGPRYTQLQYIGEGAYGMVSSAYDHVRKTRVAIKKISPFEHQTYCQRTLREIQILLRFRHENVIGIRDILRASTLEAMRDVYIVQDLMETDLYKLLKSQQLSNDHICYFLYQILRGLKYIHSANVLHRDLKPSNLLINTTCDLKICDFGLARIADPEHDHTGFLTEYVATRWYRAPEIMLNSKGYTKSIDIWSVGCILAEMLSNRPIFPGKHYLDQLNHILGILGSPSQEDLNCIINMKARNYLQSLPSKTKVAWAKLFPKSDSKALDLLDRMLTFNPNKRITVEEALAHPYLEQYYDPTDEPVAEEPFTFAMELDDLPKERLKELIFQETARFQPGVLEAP
T11 sequence (P10721 26-976 V559D/V654A): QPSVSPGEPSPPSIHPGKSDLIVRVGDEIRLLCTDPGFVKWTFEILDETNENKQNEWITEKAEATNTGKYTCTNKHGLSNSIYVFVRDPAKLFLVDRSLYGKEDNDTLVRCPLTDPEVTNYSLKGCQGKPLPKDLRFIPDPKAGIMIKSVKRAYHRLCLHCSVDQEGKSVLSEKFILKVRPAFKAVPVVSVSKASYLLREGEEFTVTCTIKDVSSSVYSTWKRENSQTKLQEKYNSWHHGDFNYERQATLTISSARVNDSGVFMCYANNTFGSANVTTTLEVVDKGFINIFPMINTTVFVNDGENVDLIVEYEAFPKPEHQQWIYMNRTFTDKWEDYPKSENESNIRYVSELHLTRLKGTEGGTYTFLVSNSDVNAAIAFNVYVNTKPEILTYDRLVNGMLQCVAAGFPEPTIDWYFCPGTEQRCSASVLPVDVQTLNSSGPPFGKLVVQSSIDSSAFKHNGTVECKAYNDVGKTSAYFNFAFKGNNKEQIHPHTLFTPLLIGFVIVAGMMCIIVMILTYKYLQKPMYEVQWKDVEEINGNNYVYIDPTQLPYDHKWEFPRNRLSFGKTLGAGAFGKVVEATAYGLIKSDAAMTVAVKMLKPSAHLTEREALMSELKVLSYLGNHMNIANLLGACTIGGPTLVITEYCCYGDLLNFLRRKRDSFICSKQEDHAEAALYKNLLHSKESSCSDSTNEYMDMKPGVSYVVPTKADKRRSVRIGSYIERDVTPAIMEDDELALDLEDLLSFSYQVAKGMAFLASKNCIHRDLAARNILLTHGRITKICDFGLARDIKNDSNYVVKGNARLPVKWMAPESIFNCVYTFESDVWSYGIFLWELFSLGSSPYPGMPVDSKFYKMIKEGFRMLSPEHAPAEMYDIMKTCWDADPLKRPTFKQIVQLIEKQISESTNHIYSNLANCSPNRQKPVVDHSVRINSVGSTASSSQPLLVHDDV
T3 sequence (Q96GD4 whole entry): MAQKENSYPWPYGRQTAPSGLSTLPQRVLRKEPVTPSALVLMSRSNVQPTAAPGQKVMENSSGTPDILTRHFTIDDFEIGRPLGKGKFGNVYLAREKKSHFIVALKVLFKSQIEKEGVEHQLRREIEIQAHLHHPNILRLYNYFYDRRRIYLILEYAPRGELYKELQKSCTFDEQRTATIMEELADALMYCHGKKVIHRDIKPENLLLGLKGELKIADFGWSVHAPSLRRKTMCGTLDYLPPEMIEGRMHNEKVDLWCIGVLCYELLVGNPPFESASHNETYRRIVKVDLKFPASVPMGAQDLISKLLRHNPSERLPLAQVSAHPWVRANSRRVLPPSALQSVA
T13 sequence (P36507 whole entry): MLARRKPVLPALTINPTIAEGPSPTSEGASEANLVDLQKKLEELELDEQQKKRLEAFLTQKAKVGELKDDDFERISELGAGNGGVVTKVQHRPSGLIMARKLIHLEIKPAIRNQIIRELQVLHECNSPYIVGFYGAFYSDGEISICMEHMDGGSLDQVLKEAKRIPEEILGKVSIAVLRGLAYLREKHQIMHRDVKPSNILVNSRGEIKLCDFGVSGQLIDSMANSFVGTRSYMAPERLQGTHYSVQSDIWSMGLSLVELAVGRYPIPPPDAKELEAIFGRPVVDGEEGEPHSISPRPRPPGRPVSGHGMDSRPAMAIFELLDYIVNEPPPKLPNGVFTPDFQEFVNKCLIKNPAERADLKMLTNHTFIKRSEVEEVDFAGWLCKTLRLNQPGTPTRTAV
T12 sequence (Q9Y2U5 whole entry): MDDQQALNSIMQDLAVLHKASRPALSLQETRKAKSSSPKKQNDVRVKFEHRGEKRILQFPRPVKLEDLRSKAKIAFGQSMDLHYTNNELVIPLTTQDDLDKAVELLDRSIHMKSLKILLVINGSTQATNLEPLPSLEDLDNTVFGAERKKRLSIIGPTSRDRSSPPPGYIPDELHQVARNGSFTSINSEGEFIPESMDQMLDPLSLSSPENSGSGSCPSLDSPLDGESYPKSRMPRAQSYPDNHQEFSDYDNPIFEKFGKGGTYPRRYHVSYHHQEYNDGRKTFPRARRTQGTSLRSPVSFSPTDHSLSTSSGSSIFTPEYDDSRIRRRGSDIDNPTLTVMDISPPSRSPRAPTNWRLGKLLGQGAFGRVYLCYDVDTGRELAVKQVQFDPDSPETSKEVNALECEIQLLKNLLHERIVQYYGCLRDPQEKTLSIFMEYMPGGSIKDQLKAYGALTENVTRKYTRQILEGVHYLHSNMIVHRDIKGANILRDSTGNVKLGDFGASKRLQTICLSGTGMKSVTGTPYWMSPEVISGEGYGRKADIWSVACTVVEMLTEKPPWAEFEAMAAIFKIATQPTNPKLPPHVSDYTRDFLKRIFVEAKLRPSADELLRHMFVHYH
T17 sequence (Q16620 32-822): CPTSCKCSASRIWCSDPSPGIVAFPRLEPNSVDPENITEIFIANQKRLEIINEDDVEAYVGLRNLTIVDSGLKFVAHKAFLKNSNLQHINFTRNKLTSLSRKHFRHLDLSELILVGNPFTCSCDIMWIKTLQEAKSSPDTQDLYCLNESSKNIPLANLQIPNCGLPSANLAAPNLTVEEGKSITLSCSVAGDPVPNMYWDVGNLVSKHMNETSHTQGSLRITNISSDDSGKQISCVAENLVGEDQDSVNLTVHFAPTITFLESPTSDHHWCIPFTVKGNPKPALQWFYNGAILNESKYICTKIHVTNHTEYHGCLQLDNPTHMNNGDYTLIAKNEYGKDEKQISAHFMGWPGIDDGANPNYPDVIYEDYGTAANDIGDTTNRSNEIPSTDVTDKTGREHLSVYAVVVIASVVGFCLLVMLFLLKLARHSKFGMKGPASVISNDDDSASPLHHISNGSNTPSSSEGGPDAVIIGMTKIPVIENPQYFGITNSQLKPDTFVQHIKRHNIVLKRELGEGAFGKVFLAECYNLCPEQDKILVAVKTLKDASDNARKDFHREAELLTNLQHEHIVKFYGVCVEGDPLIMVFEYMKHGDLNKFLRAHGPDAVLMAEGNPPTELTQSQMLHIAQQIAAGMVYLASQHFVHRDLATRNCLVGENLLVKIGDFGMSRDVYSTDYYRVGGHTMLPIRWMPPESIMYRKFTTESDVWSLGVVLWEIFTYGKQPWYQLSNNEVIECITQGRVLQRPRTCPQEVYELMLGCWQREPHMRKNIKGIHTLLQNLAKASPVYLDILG
T9 sequence (P10721 26-976 A829P): as the sequence (P10721 26-976 V559D/V654A) above, with D534V, A629V, A804P counted along it
T4 sequence (Q9Y463 whole entry): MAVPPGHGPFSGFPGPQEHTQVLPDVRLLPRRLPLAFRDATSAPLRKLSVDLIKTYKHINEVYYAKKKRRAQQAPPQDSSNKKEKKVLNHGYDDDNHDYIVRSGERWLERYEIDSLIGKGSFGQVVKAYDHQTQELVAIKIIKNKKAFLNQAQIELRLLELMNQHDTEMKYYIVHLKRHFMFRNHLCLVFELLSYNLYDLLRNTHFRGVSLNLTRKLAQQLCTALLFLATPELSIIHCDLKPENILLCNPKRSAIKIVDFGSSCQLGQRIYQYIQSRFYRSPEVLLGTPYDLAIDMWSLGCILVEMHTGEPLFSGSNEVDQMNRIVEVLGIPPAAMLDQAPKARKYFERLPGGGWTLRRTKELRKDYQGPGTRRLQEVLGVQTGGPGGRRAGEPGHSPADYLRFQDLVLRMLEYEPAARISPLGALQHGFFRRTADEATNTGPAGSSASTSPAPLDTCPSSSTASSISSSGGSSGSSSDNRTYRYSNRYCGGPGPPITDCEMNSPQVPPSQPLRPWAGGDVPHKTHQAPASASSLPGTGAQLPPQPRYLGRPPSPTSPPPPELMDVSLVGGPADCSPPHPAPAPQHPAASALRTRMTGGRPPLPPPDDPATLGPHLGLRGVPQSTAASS
T10 sequence (P10721 26-976 V559D): as the sequence (P10721 26-976 V559D/V654A) above, with A629V counted along it

remaining binding at 1 µM [1]: < 10%
remaining binding at 1 µM [2]: < 10%
remaining binding at 1 µM (AURKB): < 10%
remaining binding at 1 µM (DYRK1B): < 10%
remaining binding at 1 µM (ERK1): < 10%
remaining binding at 1 µM (ERK3): < 10%
remaining binding at 1 µM (HIPK1): < 10%
remaining binding at 1 µM (HIPK4): < 10%
remaining binding at 1 µM (KIT(A829P)): < 10%
remaining binding at 1 µM (KIT(V559D)): < 10%
remaining binding at 1 µM (KIT(V559D, V654A)): < 10%
remaining binding at 1 µM (MAP3K2): < 10%
remaining binding at 1 µM (MEK2): < 10%
remaining binding at 1 µM (PAK4): < 10%
remaining binding at 1 µM (PAKI): < 10%
remaining binding at 1 µM (PIM3): < 10%
remaining binding at 1 µM (TRKB): < 10%
SMILES: COc1ccc2nc(-c3n[nH]c4ccc(C(=O)N[C@H]5CC[C@H](N)C5)cc34)[nH]c2c1 [Example 32, N-((1S,3S)-3-aminocyclopentyl)-3-(6-methoxy-1H-benzo[d]imidazol-2-yl)-1H-indazole-5-carboxamide]
